{"source": "patent US20220331303A1", "about": "“USE OF AN OREXIN 2 RECEPTOR AGONIST FOR THE TREATMENT OF EXCESSIVE SLEEPINESS” (Takeda Pharmaceutical Company Limited, priority 2019, published 2022)", "key": {"[1]": {"tested_on": "sleep-deprived healthy volunteers", "experiment": "Karolinska Sleepiness Scale (KSS) in sleep-deprived healthy volunteers", "type": "in vivo, human", "conditions": "for KSS Sleepy/Alert LS Mean / KSS Sleepy/Alert LS Mean Difference vs Placebo Estimate: M: Modafinil 300 mg", "description": "(§1) During the day before dosing on Day 1, participants were administered the KSS at scheduled timepoints. A practice MWT session was performed on Day 1 treatment period 1 (only once during the entire study) to familiarize subjects with the procedures. Study drug was administered in the clinic in the evening on Day 1 of each treatment period. Subjects underwent the MWT and KSS at specified timepoints after the start of the infusion. Subjects were required to stay awake between the MWT tests. Following completion of the IV infusion on Day 2, subjects underwent an additional MWT test. When the final MWT test and cognitive testing were completed, subjects were allowed to sleep (recovery sleep) for approximately 6 hours. PSG recording was collected during this time. Subjects were discharged from the unit after completion on Day 2 with continuing actigraphy upon discharge (to begin on Day −6 before the next treatment period). The interval between each subsequent treatment period was at least 7 days to ensure that the subject's circadian rhythm had returned to a normal cycle. Subject's vital signs, including BP, were monitored during the dosing and testing period. Blood samples for determination of Compound A plasma concentrations were collected at specified timepoints on Days 1 and 2 of each treatment period. Subjects completed the Columbia-Suicide Severity Rating Scale (C-SSRS) during screening, before study drug administration, and before discharge on Day 2 of each treatment period.\nSecondary endpoints: • PK parameters calculated from plasma concentrations of Compound A. • Scores for sleepiness on the Karolinska Sleepiness Scale (KSS).\nThe secondary efficacy endpoint was sleepiness/alertness as assessed by KSS at 14, 10, 6, and 2 hours predose (approximately between 7:45 AM to 7:45 PM); 2, 2.75, 4.75, 6.75, and 8.75 hours post infusion start (approximately between mid-night to 7 AM in the morning); and at 1.75 hours post infusion end. A higher value indicates more sleepiness, a lower value indicates more alertness. Prior to infusion, there were no statistically significant differences at any time point of observation in KSS score for Compound A 44 and 112 mg treatments when compared to placebo. […] On the average, for modafinil and Compound A 44 and 112 mg, there were about 1.6 to 3.7 points increase in the KSS postdose/the infusion start, relative to that prior to dosing during the daytime. However, for placebo, the increase in the average KSS is 4.9."}, "[2]": {"tested_on": "sleep-deprived healthy volunteers", "experiment": "Safety/tolerability of a single dose in sleep-deprived healthy adults", "type": "in vivo, human", "conditions": "Modafinil 300 mg; moderate intensity", "description": "as §1\nSafety endpoints: adverse events (AEs), physical examinations, vital signs, 12-lead electrocardiograms (ECGs), clinical laboratory evaluations (hematology, blood chemistry, and urinalysis), drug-liking visual analogue scale, and Profile of Mood States."}, "[3]": {"conditions": "DELTA: AVERAGE POST - AVERAGE PRIOR"}, "[4]": {"conditions": "Modafinil 300 mg, 1.75 HOURS POST INFUSION END"}, "[5]": {"conditions": "Modafinil 300 mg, 2 HOURS PREDOSE"}, "[6]": {"conditions": "Modafinil 300 mg, 2.75 HOURS POST INFUSION START"}, "[7]": {"conditions": "Modafinil 300 mg, 4.75 HOURS POST INFUSION START"}, "[8]": {"conditions": "Modafinil 300 mg, 6 HOURS PREDOSE"}, "[9]": {"conditions": "Modafinil 300 mg, 6.75 HOURS POST INFUSION START"}, "[10]": {"conditions": "Modafinil 300 mg, 8.75 HOURS POST INFUSION START"}, "[11]": {"conditions": "Modafinil 300 mg, 10 HOURS PREDOSE"}, "[12]": {"conditions": "Modafinil 300 mg, 14 HOURS PREDOSE"}}}
{"smiles": "NC(=O)C[S+]([O-])C(c1ccccc1)c1ccccc1", "note": "(stereo not shown) [Modafinil, modafinil, reference compound]", "values": [{"measurement": "KSS Sleepy/Alert LS Mean", "setting": "[1]; 1.75 HOURS POST INFUSION END", "result": 7.16}, {"measurement": "KSS Sleepy/Alert LS Mean Difference vs Placebo Estimate", "setting": "[1]; 1.75 HOURS POST INFUSION END", "result": "−0.99"}, {"measurement": "KSS Sleepy/Alert LS Mean", "setting": "[1]; 2 HOURS PREDOSE", "result": 3.32}, {"measurement": "KSS Sleepy/Alert LS Mean Difference vs Placebo Estimate", "setting": "[1]; 2 HOURS PREDOSE", "result": "−0.58"}, {"measurement": "KSS Sleepy/Alert LS Mean", "setting": "[1]; 2.75 HOURS POST INFUSION START", "result": 3.69}, {"measurement": "KSS Sleepy/Alert LS Mean Difference vs Placebo Estimate", "setting": "[1]; 2.75 HOURS POST INFUSION START", "result": "−3.16"}, {"measurement": "KSS Sleepy/Alert LS Mean", "setting": "[1]; 4.75 HOURS POST INFUSION START", "result": 4.32}, {"measurement": "KSS Sleepy/Alert LS Mean Difference vs Placebo Estimate", "setting": "[1]; 4.75 HOURS POST INFUSION START", "result": "−3.83"}, {"measurement": "KSS Sleepy/Alert LS Mean", "setting": "[1]; 6 HOURS PREDOSE", "result": 2.58}, {"measurement": "KSS Sleepy/Alert LS Mean Difference vs Placebo Estimate", "setting": "[1]; 6 HOURS PREDOSE", "result": "−0.22"}, {"measurement": "KSS Sleepy/Alert LS Mean", "setting": "[1]; 6.75 HOURS POST INFUSION START", "result": 5.79}, {"measurement": "KSS Sleepy/Alert LS Mean Difference vs Placebo Estimate", "setting": "[1]; 6.75 HOURS POST INFUSION START", "result": "−2.71"}, {"measurement": "KSS Sleepy/Alert LS Mean", "setting": "[1]; 8.75 HOURS POST INFUSION START", "result": 6.69}, {"measurement": "KSS Sleepy/Alert LS Mean Difference vs Placebo Estimate", "setting": "[1]; 8.75 HOURS POST INFUSION START", "result": "−1.65"}, {"measurement": "KSS Sleepy/Alert LS Mean", "setting": "[1]; 10 HOURS PREDOSE", "result": 2.32}, {"measurement": "KSS Sleepy/Alert LS Mean Difference vs Placebo Estimate", "setting": "[1]; 10 HOURS PREDOSE", "result": "−0.18"}, {"measurement": "KSS Sleepy/Alert LS Mean", "setting": "[1]; 14 HOURS PREDOSE", "result": 2.79}, {"measurement": "KSS Sleepy/Alert LS Mean Difference vs Placebo Estimate", "setting": "[1]; 14 HOURS PREDOSE", "result": "−0.26"}, {"measurement": "KSS Sleepy/Alert LS Mean", "setting": "[1]; AVERAGE POST INFUSION START (2.75, 4.75, 6.75 AND 8.75 HOURS)", "result": 5.12}, {"measurement": "KSS Sleepy/Alert LS Mean", "setting": "[1]; AVERAGE PRIOR TO INFUSION START (14, 10, 6, 2 HOURS PREDOSE)", "result": 2.75}, {"measurement": "KSS Sleepy/Alert LS Mean", "setting": "[1]; [3]", "result": 2.37}, {"measurement": "KSS Sleepy/Alert LS Mean Difference vs Placebo Estimate", "setting": "[1]; [3]", "result": "−2.53"}, {"measurement": "Difference between average KSS score post and prior to infusion start, LS Mean (SE)", "setting": "[1]; Modafinil 300 mg", "result": "2.37 (0.323)"}, {"measurement": "KSS Max", "setting": "[1]; [4]", "result": 9}, {"measurement": "KSS Mean (SD)", "setting": "[1]; [4]", "result": "7.2 (1.80)"}, {"measurement": "KSS Median", "setting": "[1]; [4]", "result": 8.0}, {"measurement": "KSS Min", "setting": "[1]; [4]", "result": 3}, {"measurement": "KSS Max", "setting": "[1]; [5]", "result": 6}, {"measurement": "KSS Mean (SD)", "setting": "[1]; [5]", "result": "3.3 (1.20)"}, {"measurement": "KSS Median", "setting": "[1]; [5]", "result": 3.0}, {"measurement": "KSS Min", "setting": "[1]; [5]", "result": 1}, {"measurement": "KSS Max", "setting": "[1]; [6]", "result": 6}, {"measurement": "KSS Mean (SD)", "setting": "[1]; [6]", "result": "3.7 (1.63)"}, {"measurement": "KSS Median", "setting": "[1]; [6]", "result": 4.0}, {"measurement": "KSS Min", "setting": "[1]; [6]", "result": 1}, {"measurement": "KSS Max", "setting": "[1]; [7]", "result": 7}, {"measurement": "KSS Mean (SD)", "setting": "[1]; [7]", "result": "4.3 (1.89)"}, {"measurement": "KSS Median", "setting": "[1]; [7]", "result": 4.0}, {"measurement": "KSS Min", "setting": "[1]; [7]", "result": 1}, {"measurement": "KSS Max", "setting": "[1]; [8]", "result": 7}, {"measurement": "KSS Mean (SD)", "setting": "[1]; [8]", "result": "2.6 (1.35)"}, {"measurement": "KSS Median", "setting": "[1]; [8]", "result": 2.0}, {"measurement": "KSS Min", "setting": "[1]; [8]", "result": 1}, {"measurement": "KSS Max", "setting": "[1]; [9]", "result": 8}, {"measurement": "KSS Mean (SD)", "setting": "[1]; [9]", "result": "5.8 (2.12)"}, {"measurement": "KSS Median", "setting": "[1]; [9]", "result": 6.0}, {"measurement": "KSS Min", "setting": "[1]; [9]", "result": 2}, {"measurement": "KSS Max", "setting": "[1]; [10]", "result": 9}, {"measurement": "KSS Mean (SD)", "setting": "[1]; [10]", "result": "6.7 (1.92)"}, {"measurement": "KSS Median", "setting": "[1]; [10]", "result": 7.0}, {"measurement": "KSS Min", "setting": "[1]; [10]", "result": 3}, {"measurement": "KSS Max", "setting": "[1]; [11]", "result": 5}, {"measurement": "KSS Mean (SD)", "setting": "[1]; [11]", "result": "2.3 (1.11)"}, {"measurement": "KSS Median", "setting": "[1]; [11]", "result": 2.0}, {"measurement": "KSS Min", "setting": "[1]; [11]", "result": 1}, {"measurement": "KSS Max", "setting": "[1]; [12]", "result": 5}, {"measurement": "KSS Mean (SD)", "setting": "[1]; [12]", "result": "2.8 (1.08)"}, {"measurement": "KSS Median", "setting": "[1]; [12]", "result": 3.0}, {"measurement": "KSS Min", "setting": "[1]; [12]", "result": 1}, {"measurement": "KSS score", "setting": "[1]; Modafinil 300 mg, 1.75 hours post infusion end", "result": 7.16}, {"measurement": "Drug-related TEAE of liver function test increased, number of subjects", "setting": "[2]", "result": 1, "unit": "subject"}]}
